The values below come from US11753484B2, “Cellulose ether-lactam hybrid polymers, compositions, and methods for preparing and using the hybrid polymers” (HERCULES LLC, priority 2017, dated 2023).

Data set [1] in a line: Dissolution of Efavirenz spray dried dispersions in FaSSIF media (Pion μDiss Profiler). Type of data set: physicochemical. The method, then: (§1) The active pharmaceutical ingredient (API) and polymer were mixed in a 30:70 ratio and spray-dried into a spray dried dispersion (SDD). The following are the solution preparation and spray drying process information. Solution preparation: Efavirenz and polymers were dissolved in a 2:1 (w/w) mixture of acetone:methanol solution at a total 3% solid loading. Dissolution of all components was visually confirmed before spray drying. Spray drying: Spray drying was performed on a GEA-Niro SD Micro spray dryer. All dispersions were spray dried targeting an inlet gas temperature of 85° C., 25 kg/hour process gas flow, 0.5 barr atomization gas pressure, 1.5 kg/hour atomizing gas flow, and an adjustable liquid feed rate targeting an outlet gas temperature of 55° C. The feed solution was held at ambient conditions. Dissolution: The dissolution tests were conducted using Pion μDiss Profiler with in situ Fiber Optic UV-Vis Monitoring. 66.7 mg spray dried dispersion (SDD) was weighed and tested in the dissolution, with 30% drug loading level (20 mg API). The controlled reference used in dissolution testing is pure API Efavirenz (20 mg). The quantity of dissolution media is 20 mL. The API concentrations were monitored for 2 hours. For each sample, triplicate measurements were taken and the average results were reported. Fasted Simulated Intestine Fluid (FaSSIF), as well as pH 6.8 phosphate buffer, were used to perform the dissolution. FaSSIF is virtually the same as the small intestinal juices present when one hasn't eaten any food, and contain bile salts and phospholipids, physiologically relevant surfactants which are missing from typical dissolution media. The use of FaSSIF media can help to better correlate the in vitro dissolution property and the in vivo response (IVIVC), so as to further understand the API performance in actual human body. Meanwhile, pH 6.8 phosphate buffer medium was also used in the study, as it was more typically used in formulation development/screening process, pH 6.8 phosphate buffer medium is not as indicated as FaSSIF medium in terms of establishing the IVIVC. […]

The conditions of data set [2]: cited from earlier work.
Data set [3] can be described thus: Dissolution of Efavirenz spray dried dispersions in pH 6.8 phosphate buffer media (Pion μDiss Profiler). The format is physicochemical. The method, then: as §1
A short description of data set [4]: Glass transition temperature (Tg) by differential scanning calorimetry. Type of data set: physicochemical. The conditions noted are these: regular DSC, heat-cool-heat, 10° C./minute, second heating cycle. The method, then:
Differential Scanning Calorimetry (DSC): Glass transition temperature Tg is an important indicator of API physical stability against crystallization through storage. The higher Tg, the better physical stability. Generally speaking, if the Tg is equal to or higher than storage temperature+50° C., then the product is expected to be very stable throughout the entire shelf life. If the Tg is between storage temperature and temperature+50° C., then some stability issue may occur.
The glass transition temperature (Tg) measurement were conducted using TA instrument, Q2000. For pure ingredients, regular DSC set up was used. A heat-cool-heat cycle with a heating rate of 10° C./minutes was implemented. The first heating cycle is used to standardize sample by erasing its thermal history, and the Tg from second heating cycle is reported. For SDD, modulated DSC set up was used. An average heating rate of 2° C./minute with modulation amplitude of 1° per 40 seconds was implemented.
The measurement results are summarized below in the Table. […] Stable SDDs are expected from this indicator.
For orientation: DSC measures the heat that a sample takes up or gives off during a temperature scan.

The conditions of data set [5]: description of the API; cited from earlier work.
For data set [6] the following is noted: BCS-2 type drug; cited from earlier work.
The mark [7] stands for this setting: 20 mg API in 20 mL, 30% drug load SDD (API:polymer 30:70), 2 hours, mean of triplicate.
The mark [8] stands for this setting: Efavirenz concentration at 120 min, SDD 30:70.

For the compound `O=C1Nc2ccc(Cl)cc2[C@@](C#CC2CC2)(C(F)(F)F)O1` [Efavirenz], the AUC (commonly the area under the concentration-time curve, a measure of exposure) was 18702.91 µg·min/mL in data set [1] (setting [7]) and 960.92 µg·min/mL in data set [3] (setting [7]). Also, the relAUC in data set [1] (AUC of SDD vs AUC of neat API) and in data set [3] (AUC of SDD vs AUC of neat API) was 1.0 each time. Further, the values for the C120 in data set [1] (setting [8]) and in data set [3] (setting [8]) were 166.7892 µg/mL and 9.924 µg/mL, respectively. Moreover, in data set [2], the “partition coefficient in an octanol-water system (logP)” value was 4.7. The “Tg, Pure ingredient” value in data set [4] amounted to 34.9 °C. For the same compound, in data set [5], the glass transition temperature result was “around 35 °C”. Moreover, in data set [6], the aqueous solubility result is “poor”.
